Assays:
[1] = tested on: human airway epithelial cells (HAECs); experiment: High-throughput sequencing (HTS) of miRNAs at four stages of differentiation of HAECs; details: for Modulation (ratio of the level of intensity of expression in log2 in two stages of differentiation) measured by high-throughput sequencing, D7 − D0 / Modulation (ratio of the level of intensity of expression in log2 in two stages of differentiation) measured by high-throughput sequencing, FC − D7 / Modulation (ratio of the level of intensity of expression in log2 in two stages of differentiation) measured by high-throughput sequencing, WD − D0 / Modulation (ratio of the level of intensity of expression in log2 in two stages of differentiation) measured by high-throughput sequencing, WD − FC / Level of intensity of expression in log2 measured by high-throughput sequencing, D0 / Level of intensity of expression in log2 measured by high-throughput sequencing, D7 / Level of intensity of expression in log2 measured by high-throughput sequencing, FC / Level of intensity of expression in log2 measured by high-throughput sequencing, WD: Table VI; for Level of intensity of expression in log2 At the differentiated stage (WD) measured in HTS: healthy human airway epithelial tissue; for Level of intensity of expression in log2 measured by high-throughput sequencing, D0: stage D0; for Level of intensity of expression in log2 measured by high-throughput sequencing, D7: stage D7; for Level of intensity of expression in log2 measured by high-throughput sequencing, FC: stage FC; for Level of intensity of expression in log2 At the differentiated stage (WD) measured in HTS / Level of intensity of expression in log2 measured by high-throughput sequencing, WD: stage WD
Method in brief: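 Differentiation time course at air-liquid interface: 0, 7, ~14 (first cilia) and ~21 days (fully differentiated). Sequencing counts per strand were normalized to 10^6 sequences and analysed by linear model with empirical Bayesian moderation.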

[2] = tested on: human airway epithelial cells (HAECs); experiment: Agilent miRNA chips, miRNA expression at four stages of differentiation of HAECs; details: for Modulation (ratio of the level of intensity of expression in log2 in two stages of differentiation) measured with the Agilent chips, D7 − D0 / Modulation (ratio of the level of intensity of expression in log2 in two stages of differentiation) measured with the Agilent chips, FC − D7 / Modulation (ratio of the level of intensity of expression in log2 in two stages of differentiation) measured with the Agilent chips, WD − D0 / Modulation (ratio of the level of intensity of expression in log2 in two stages of differentiation) measured with the Agilent chips, WD − FC / Level of intensity of expression in log2 measured with the Agilent chips, D0 / Level of intensity of expression in log2 measured with the Agilent chips, D7 / Level of intensity of expression in log2 measured with the Agilent chips, FC / Level of intensity of expression in log2 measured with the Agilent chips, WD: Table VI; for Modulation (ratio of the level of intensity of expression in log2 at two stages of differentiation), FC − D7 / Modulation (ratio of the level of intensity of expression in log2 at two stages of differentiation), WD − FC: Agilent miRNA chips, Table V; for Level of intensity of expression in log2 measured with the Agilent chips, D0: stage D0; for Level of intensity of expression in log2 measured with the Agilent chips, D7: stage D7; for Level of intensity of expression in log2 measured with the Agilent chips, FC: stage FC; for Level of intensity of expression in log2 measured with the Agilent chips, WD: stage WD
Method in brief: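 Expression read from hybridization signals on Human miRNA Microarray v2 arrays spanning all miRBase v.12.0 human miRNAs plus 89 viral ones. Samples are RNA from the same patients profiled by sequencing, labelled with the standard kit.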

[3] = tested on: basal cells and pyramidal cells of the airway epithelium; experiment: miRNA expression in sorted basal cells versus pyramidal cells (ciliated + secretory), HTS and Agilent chips; parameters: species or system human; details: for Modulation of expression of the miRNAs in pyramidal cells (323(−)) relative to basal cells 323(+): HTS and Agilent chips; for Intensity of the level of expression in log2 in pyramidal cells (323(−)): pyramidal cells (ciliated + secretory)
Method in brief: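 Sorted basal versus ciliated/mucus-secreting cells; markers CD151 and tissue factor; donors n=3; miRNA by Agilent chip or HTS.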

Substance | Modulation (ratio of the level of intensity of expression in log2 in two stages of differentiation) measured by high-throughput sequencing, D7 − D0 [1] | Modulation (ratio of the level of intensity of expression in log2 in two stages of differentiation) measured by high-throughput sequencing, FC − D7 [1] | Modulation (ratio of the level of intensity of expression in log2 in two stages of differentiation) measured by high-throughput sequencing, WD − D0 [1] | Modulation (ratio of the level of intensity of expression in log2 in two stages of differentiation) measured by high-throughput sequencing, WD − FC [1] | Level of intensity of expression in log2 At the differentiated stage (WD) measured in HTS [1] | Level of intensity of expression in log2 measured by high-throughput sequencing, D0 [1] | Level of intensity of expression in log2 measured by high-throughput sequencing, D7 [1] | Level of intensity of expression in log2 measured by high-throughput sequencing, FC [1] | Level of intensity of expression in log2 measured by high-throughput sequencing, WD [1] | Modulation (ratio of the level of intensity of expression in log2 in two stages of differentiation) measured with the Agilent chips, D7 − D0 [2] | Modulation (ratio of the level of intensity of expression in log2 at two stages of differentiation), FC − D7 [2] | Modulation (ratio of the level of intensity of expression in log2 in two stages of differentiation) measured with the Agilent chips, FC − D7 [2] | Modulation (ratio of the level of intensity of expression in log2 in two stages of differentiation) measured with the Agilent chips, WD − D0 [2] | Modulation (ratio of the level of intensity of expression in log2 at two stages of differentiation), WD − FC [2] | Modulation (ratio of the level of intensity of expression in log2 in two stages of differentiation) measured with the Agilent chips, WD − FC [2] | Level of intensity of expression in log2 measured with the Agilent chips, D0 [2] | Level of intensity of expression in log2 measured with the Agilent chips, D7 [2] | Level of intensity of expression in log2 measured with the Agilent chips, FC [2] | Level of intensity of expression in log2 measured with the Agilent chips, WD [2] | Modulation of expression of the miRNAs in pyramidal cells (323(−)) relative to basal cells 323(+) [3] | also measured
hsa-let-7f: human miRNA, SEQ ID No. 161 (UGAGGUAGUAGAUUGUAUAGUU; expressed or natural sequence; listed as Homo sapiens) | 0.22 log2 | −0.56 log2 | 0.11 log2 | 0.45 log2 | 5.35 log2 | 5.24 log2 | 5.46 log2 | 4.90 log2 | 5.35 log2 | 1.63 log2 | −0.73 log2 | −0.73 log2 | 1.08 log2 | 0.17 log2 | 0.17 log2 | 11.11 log2 | 12.75 log2 | 12.01 log2 | 12.19 log2 | −0.94 | Intensity of the level of expression in log2 in basal cells (323(+)) [3]: 10.82 log2; Intensity of the level of expression in log2 in pyramidal cells (323(−)) [3]: 9.88 log2
hsa-miR-449a: human miRNA, SEQ ID No. 46 (UGGCAGUGUAUUGUUAGCUGGU; expressed or natural sequence; listed as Homo sapiens) | 5.21 log2 | 5.21 log2 | 10.63 log2 | 0.21 log2 | 12.24 log2 | 4.48 log2 | 9.69 log2 | 14.90 log2 | 15.11 log2 | 6.53 log2 | 5.70 log2 | 5.70 log2 | 12.08 log2 | −0.15 log2 | −0.15 log2 | 1.47 log2 | 8.00 log2 | 13.70 log2 | 13.54 log2 | 6.07 | Modulation (ratio of the level of intensity of expression in log2 in two stages of differentiation), D7 − D0 ([1]; HTS): 5.21 log2; Modulation (ratio of the level of intensity of expression in log2 in two stages of differentiation), FC − D7 ([1]; HTS): 5.21 log2; Modulation (ratio of the level of intensity of expression in log2 in two stages of differentiation), WD − FC ([1]; HTS): 0.21 log2; Abundance (%), D0 ([1]; HTS, ALI-D0): 0.00%; Abundance (%), D7 ([1]; HTS, ALI-D7): 0.18%; Abundance (%), FC ([1]; HTS, ALI-FC): 6.49%; Abundance (%), WD ([1]; HTS, ALI-WD): 5.70%; Intensity of the level of expression in log2 in basal cells (323(+)) [3]: 2.81 log2; Intensity of the level of expression in log2 in pyramidal cells (323(−)) [3]: 8.88 log2
hsa-miR-151-5p: human miRNA, SEQ ID No. 8 (UCGAGGAGCUCACAGUCUAGU; expressed or natural sequence; listed as Homo sapiens) | 1.13 log2 | −0.02 log2 | 1.02 log2 | −0.09 log2 | 10.22 log2 | 9.20 log2 | 10.33 log2 | 10.31 log2 | 10.22 log2 | 1.83 log2 | −0.37 log2 | −0.37 log2 | 1.46 log2 | 0.00 log2 | 0.00 log2 | 6.71 log2 | 8.54 log2 | 8.17 log2 | 8.17 log2 | −0.73 | Intensity of the level of expression in log2 in basal cells (323(+)) [3]: 7.24 log2; Intensity of the level of expression in log2 in pyramidal cells (323(−)) [3]: 6.51 log2
hsa-miR-141: human miRNA, SEQ ID No. 6 (UAACACUGUCUGGUAAAGAUGG; expressed or natural sequence; listed as Homo sapiens) | 1.17 log2 | 0.37 log2 | 1.70 log2 | 0.17 log2 | 9.75 log2 | 8.05 log2 | 9.22 log2 | 9.58 log2 | 9.75 log2 | 2.16 log2 | −0.28 log2 | −0.28 log2 | 1.88 log2 | 0.00 log2 | 0.00 log2 | 11.15 log2 | 13.31 log2 | 13.03 log2 | 13.03 log2 | −2.88 | Intensity of the level of expression in log2 in basal cells (323(+)) [3]: 11.12 log2; Intensity of the level of expression in log2 in pyramidal cells (323(−)) [3]: 8.24 log2

— US9023821B2, “Use of MicroRNA for treating diseases associated with a dysfunction of the cilia in multiciliated epithelial cells” (Centre National de la Recherche Scientifique, priority 2009, dated 2015)
